Reference: patent publication US20250120967A1, “TYROSINE KINASES INHIBITORS AND USES THEREOF” (GREAT NOVEL THERAPEUTICS BIOTECH & MEDICALS CORPORATION, priority 2023, published 2025)

Tests used:
Experiment in all cases: Tyrosine kinase inhibition assay
Type in all cases: biochemical
Details in all cases: single concentration 1.0 μM, read-out: percent inhibition
[1] = target: T1, BMX (Homo sapiens, UniProt P51813)
T1 sequence (P51813 1-675): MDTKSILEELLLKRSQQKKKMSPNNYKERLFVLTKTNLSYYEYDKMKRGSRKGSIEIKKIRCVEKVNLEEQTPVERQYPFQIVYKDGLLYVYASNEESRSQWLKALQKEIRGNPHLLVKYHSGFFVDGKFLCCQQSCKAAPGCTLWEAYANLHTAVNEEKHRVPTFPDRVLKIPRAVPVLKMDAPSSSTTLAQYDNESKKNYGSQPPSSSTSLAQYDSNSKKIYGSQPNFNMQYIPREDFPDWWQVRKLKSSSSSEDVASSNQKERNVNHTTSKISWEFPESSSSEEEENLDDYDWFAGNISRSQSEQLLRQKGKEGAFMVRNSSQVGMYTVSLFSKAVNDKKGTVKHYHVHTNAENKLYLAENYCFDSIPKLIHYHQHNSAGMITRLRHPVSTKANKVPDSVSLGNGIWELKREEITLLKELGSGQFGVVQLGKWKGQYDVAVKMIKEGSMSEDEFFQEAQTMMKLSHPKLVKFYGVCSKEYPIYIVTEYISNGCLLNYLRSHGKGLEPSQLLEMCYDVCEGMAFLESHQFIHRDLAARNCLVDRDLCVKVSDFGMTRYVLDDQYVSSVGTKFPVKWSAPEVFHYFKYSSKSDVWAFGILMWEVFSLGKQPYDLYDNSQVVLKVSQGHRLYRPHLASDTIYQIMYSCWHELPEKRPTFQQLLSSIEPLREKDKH
Summary of the method: (§1)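 Percent inhibition from a one-concentration (1.0 μM) Z′-LYTE biochemical screen at apparent-Km ATP; >80% scored as a hit.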

[2] = target: T2, EPHA1 (Homo sapiens, UniProt P21709)
T2 sequence (P21709 26-976): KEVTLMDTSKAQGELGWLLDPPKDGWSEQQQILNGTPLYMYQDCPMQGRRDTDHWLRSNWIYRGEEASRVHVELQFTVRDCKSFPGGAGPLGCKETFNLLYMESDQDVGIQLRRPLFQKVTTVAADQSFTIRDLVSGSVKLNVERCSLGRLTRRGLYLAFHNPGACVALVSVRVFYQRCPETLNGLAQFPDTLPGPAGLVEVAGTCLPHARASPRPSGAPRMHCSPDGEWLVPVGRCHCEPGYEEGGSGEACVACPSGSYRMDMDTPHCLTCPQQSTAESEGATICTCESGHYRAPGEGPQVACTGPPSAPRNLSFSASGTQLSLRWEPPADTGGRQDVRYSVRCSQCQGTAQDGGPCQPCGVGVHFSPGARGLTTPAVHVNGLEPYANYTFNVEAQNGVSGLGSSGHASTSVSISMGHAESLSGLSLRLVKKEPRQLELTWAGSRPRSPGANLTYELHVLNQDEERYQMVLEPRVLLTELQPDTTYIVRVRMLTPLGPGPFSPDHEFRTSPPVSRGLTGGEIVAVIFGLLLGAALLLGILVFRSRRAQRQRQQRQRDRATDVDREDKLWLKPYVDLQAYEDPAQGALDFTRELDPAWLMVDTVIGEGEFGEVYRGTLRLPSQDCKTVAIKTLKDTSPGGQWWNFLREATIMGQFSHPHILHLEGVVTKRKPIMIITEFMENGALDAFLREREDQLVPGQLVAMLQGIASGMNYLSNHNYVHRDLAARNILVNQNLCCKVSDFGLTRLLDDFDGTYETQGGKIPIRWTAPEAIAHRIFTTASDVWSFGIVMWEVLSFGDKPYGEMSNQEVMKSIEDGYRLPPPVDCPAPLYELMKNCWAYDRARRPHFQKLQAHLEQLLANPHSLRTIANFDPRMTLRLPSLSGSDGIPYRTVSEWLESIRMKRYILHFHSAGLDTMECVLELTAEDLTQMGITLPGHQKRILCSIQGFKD
Summary of the method: as §1

[3] = target: T3, EPHA8 (Homo sapiens, UniProt P29322)
T3 sequence (P29322 28-1005): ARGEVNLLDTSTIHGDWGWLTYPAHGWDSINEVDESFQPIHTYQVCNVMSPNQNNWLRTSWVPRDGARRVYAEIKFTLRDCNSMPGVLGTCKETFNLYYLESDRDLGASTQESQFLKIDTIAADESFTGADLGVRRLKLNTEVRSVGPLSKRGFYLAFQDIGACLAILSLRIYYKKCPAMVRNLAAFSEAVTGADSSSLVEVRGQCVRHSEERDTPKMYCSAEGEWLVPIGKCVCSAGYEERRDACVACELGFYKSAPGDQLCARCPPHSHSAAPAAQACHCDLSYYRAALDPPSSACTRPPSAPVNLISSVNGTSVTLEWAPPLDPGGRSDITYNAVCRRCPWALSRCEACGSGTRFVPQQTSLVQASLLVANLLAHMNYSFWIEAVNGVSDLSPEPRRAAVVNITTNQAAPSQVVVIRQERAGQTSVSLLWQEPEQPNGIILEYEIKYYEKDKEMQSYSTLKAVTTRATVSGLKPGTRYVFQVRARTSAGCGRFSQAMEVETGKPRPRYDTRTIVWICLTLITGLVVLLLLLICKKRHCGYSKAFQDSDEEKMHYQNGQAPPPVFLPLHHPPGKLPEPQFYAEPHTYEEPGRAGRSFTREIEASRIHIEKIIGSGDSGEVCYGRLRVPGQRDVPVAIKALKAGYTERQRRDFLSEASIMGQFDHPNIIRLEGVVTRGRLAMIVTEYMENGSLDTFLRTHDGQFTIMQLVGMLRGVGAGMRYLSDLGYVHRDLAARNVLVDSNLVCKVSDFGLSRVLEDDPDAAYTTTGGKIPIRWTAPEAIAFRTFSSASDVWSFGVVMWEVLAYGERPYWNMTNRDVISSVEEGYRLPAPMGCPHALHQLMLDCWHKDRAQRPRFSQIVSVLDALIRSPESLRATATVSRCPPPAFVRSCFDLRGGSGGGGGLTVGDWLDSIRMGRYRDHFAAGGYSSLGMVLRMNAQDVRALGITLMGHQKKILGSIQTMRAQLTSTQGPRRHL
Summary of the method: as §1

SMILES	inhibition at 1 µM [1]	inhibition at 1 µM [2]	inhibition at 1 µM [3]
COc1cc2nccc(Oc3ccc(NC(=O)C4(C(=O)Nc5ccc(F)cc5)CC4)cc3)c2cc1OC [Cabozantinib, reference compound]	36%	74%	104%
COc1cc2nccc(Oc3ccc(NC(=O)C4(NC(=O)c5ccc(F)cc5)CC4)cc3F)c2cc1OC [Cbo-02, N-(1-((4-((6,7-diMethoxyquinolin-4-yl)oxy)-3-fluorophenyl)carbamoyl)cyclopropyl)-4-fluorobenzamide]	22%	29%	42%
COc1cc2nccc(Oc3ccc(NC(=O)C4(NC(=O)c5ccc(F)cc5)CC4)cc3F)c2cc1Oc1ccc(N)cc1F [Cbo-10]	33%	84%	76%
COc1cc2nccc(Oc3ccc(NC(=O)C4(NC(=O)c5ccc(F)cc5)CC4)cc3F)c2cc1Oc1c(F)cc(N)cc1F [Cbo-14]	42%	80%	82%
COc1cc2nccc(Oc3ccc(NC(=O)C4(C(=O)Nc5ccc(F)cc5)CC4)cc3F)c2cc1Oc1ccc(N)cc1F [Cbo-23]	42%	96%	100%
